Data: US4359461A, “Mono-, di- and tri-adamantylcarbonyl- digalactopyranosyl- glucopyranosyl- fructofuranose sulfate salts” (American Cyanamid Company, priority 1981, dated 1982)
Structures can show the parent of a compound that is named as a salt.

What was measured:
[1] = test system: late components of human complement (C3-C9); experiment: Test Code 035 (C3-C9 inhibitor), lysis of EAC 142; format: biochemical; details: activity in wells, serial dilution assay; higher well number indicates higher activity
Source text: (§1) An active inhibitor protects C2 from C1 and C4; (ii) Test Code 035 (C3-C9 inhibitor)--This test determines the ability of the late components of human complement (C3-C9) to lyse EAC 142 in the presence of appropriate dilutions of the test compound. An active inhibitor protects EAC 142 from lysis by human C3-C9; (iii) Test Code 036 (C-Shunt inhibitor)--In this test human erythrocytes rendered fragile are lysed in autologous serum via the shunt pathway activated by cobra venom factor in the presence of appropriate dilutions of the test compound. Inhibition of the shunt pathway results in failure of lysis; (iv) Cap 50 Test--Here, appropriate amounts of the test compound are added to a pool of guinea pig serum in vitro, after which the complement level is determined in undiluted serum by the serum capillary tube assay of U.S. Pat. No. 3,876,376. The concentration of compound inhibiting 50% is reported; and (v) Guinea Pig Intraperitoneal Test (GPIP)--Guinea pigs weighing about 300 g are dosed intraperitoneally (i.p.) with 200 mg/kg of the test compound dissolved in saline and adjusted to pH 7-8. Approximately […], taken by orbital sinus puncture 30 minutes and one hour after injections, are collected directly into centrifuge tubes; 5 ml blood samples, taken by decapitation 2 hours after injection, are collected directly into diSPo® beakers. The samples were allowed to clot, centrifuged, and the resultant sera were assayed for complement activity using the capilllary complement assay. Percent inhibition is calculated by comparison with simultaneous controls. The results of the GPIP appear in Table I together with results of Test Code 026, 035, 036 and Cap 50.

[2] = test system: shunt pathway; experiment: Test Code 036 (C-Shunt inhibitor), lysis of human erythrocytes in autologous serum via shunt pathway activated by cobra venom factor; format: biochemical; details: activity in wells, serial dilution assay; higher well number indicates higher activity
Source text: as §1

[3] = test system: complement activity of sera; experiment: Guinea Pig Intraperitoneal Test (GPIP); format: in vivo; details: 200 mg/kg i.p.
Source text: as §1

[4] = target: activated human C1 (Homo sapiens, UniProt P09871); experiment: Test Code 026 (C1 inhibitor); format: biochemical; details: activity in wells, serial dilution assay; higher well number indicates higher activity
Source text: as §1

Structure (SMILES)	C-Late 035 Wells [1]	C-Shunt Inhibition 036 Wells [2]	In Vivo Activity (Guinea pig) % Inhibition Intraperitoneal ([3]; 30 minutes) [%]	In Vivo Activity (Guinea pig) % Inhibition Intraperitoneal ([3]; 60 minutes) [%]	In Vivo Activity (Guinea pig) % Inhibition Intraperitoneal ([3]; 120 minutes) [%]	C1 026 Wells [4]	In Vivo Activity (Guinea pig) % Inhibition Intraperitoneal ([3]; 2 hours) [%]	In Vivo Activity (Guinea pig) % Inhibition Intraperitoneal ([3]; 6 hours) [%]	In Vivo Activity (Guinea pig) % Inhibition Intraperitoneal ([3]; 24 hours) [%]
O=C(OC[C@H]1O[C@H](OC[C@H]2O[C@H](OC[C@H]3O[C@H](O[C@]4(COC(=O)C56CC7CC(CC(C7)C5)C6)O[C@H](COC(=O)C56CC7CC(CC(C7)C5)C6)[C@@H](OS(=O)(=O)O)[C@@H]4OS(=O)(=O)O)[C@H](OS(=O)(=O)O)[C@@H](OS(=O)(=O)O)[C@@H]3OS(=O)(=O)O)[C@H](OS(=O)(=O)O)[C@@H](OS(=O)(=O)O)[C@H]2OS(=O)(=O)O)[C@H](OS(=O)(=O)O)[C@@H](OS(=O)(=O)O)[C@H]1OS(=O)(=O)O)C12CC3CC(CC(C3)C1)C2 [1,6-Bis-O-(1-adamantylcarbonyl)-β-D-fructofuranosyl-6-O-1-adamantylcarbonyl-O-α-D-galactopyranosyl(1→6)-O-α-D-galactopyranosyl(1→6)-α-D-glucopyranoside, undecakis(H-sulfate), undecasodium salt]	+1 Wells	+3 Wells	11	12	72	+6 Wells			
O=C(OC[C@H]1O[C@H](OC[C@H]2O[C@H](OC[C@H]3O[C@H](O[C@]4(COS(=O)(=O)O)O[C@H](COC(=O)C56CC7CC(CC(C7)C5)C6)[C@@H](OS(=O)(=O)O)[C@@H]4OS(=O)(=O)O)[C@H](OS(=O)(=O)O)[C@@H](OS(=O)(=O)O)[C@@H]3OS(=O)(=O)O)[C@H](OS(=O)(=O)O)[C@@H](OS(=O)(=O)O)[C@H]2OS(=O)(=O)O)[C@H](OS(=O)(=O)O)[C@@H](OS(=O)(=O)O)[C@H]1OS(=O)(=O)O)C12CC3CC(CC(C3)C1)C2 [6,6'"-Di-1-adamantanecarboxylate-O--α-D-galactopyranosyl(1→6] [6,6'"-Di-1-adamantanecarboxylate-O-α-D-galactopyranosyl(1→6)-O-α-D-galactopyranosyl(1→6)-O-α-D-glucopyranosyl-β-D-fructofuranose, dodecakis(H-sulfate), dodecasalt with trimethylamine]	+1 Wells	+3 Wells				+9 Wells			
O=C(OC[C@H]1O[C@H](OC[C@H]2O[C@H](OC[C@H]3O[C@H](O[C@]4(COS(=O)(=O)O)O[C@H](COC(=O)C56CC7CC(CC(C7)C5)C6)[C@@H](OS(=O)(=O)O)[C@@H]4OS(=O)(=O)O)[C@H](OS(=O)(=O)O)[C@@H](OS(=O)(=O)O)[C@@H]3OS(=O)(=O)O)[C@H](OS(=O)(=O)O)[C@@H](OS(=O)(=O)O)[C@H]2OS(=O)(=O)O)[C@H](OS(=O)(=O)O)[C@@H](OS(=O)(=O)O)[C@H]1OS(=O)(=O)O)C12CC3CC(CC(C3)C1)C2 [6,6'"-Di-1-admantanecarboxylate-O--α-D-galactopyranosyl(1→6)] [6,6'"-Di-1-adamantanecarboxylate-O-α-D-galactopyranosyl(1→6)-O-α-D-galactopyranosyl(1→6)-O-α-D-glucopyranosyl-β-D-fructofuranose, dodecakis(H-sulfate), dodecasodium salt]		+2 Wells	72	92	97				
O=C(OC[C@H]1O[C@@](COS(=O)(=O)O)(O[C@H]2O[C@H](CO[C@H]3O[C@H](CO[C@H]4O[C@H](COS(=O)(=O)O)[C@H](OS(=O)(=O)O)[C@H](OS(=O)(=O)O)[C@H]4OS(=O)(=O)O)[C@H](OS(=O)(=O)O)[C@H](OS(=O)(=O)O)[C@H]3OS(=O)(=O)O)[C@@H](OS(=O)(=O)O)[C@H](OS(=O)(=O)O)[C@H]2OS(=O)(=O)O)[C@@H](OS(=O)(=O)O)[C@@H]1OS(=O)(=O)O)C12CC3CC(CC(C3)C1)C2 [6-O-(1-Adamantylcarbonyl)-β-D-fructofuranosyl-O-α-D-galactopyranosyl(1→6)-O-α-D-galactopyranosyl(1→6)-α-D-glucopyranoside, tridecakis(H-sulfate), tridecasalt with trimethylamine]		+5 Wells							
O=C(OC[C@H]1O[C@@](COS(=O)(=O)O)(O[C@H]2O[C@H](CO[C@H]3O[C@H](CO[C@H]4O[C@H](COS(=O)(=O)O)[C@H](OS(=O)(=O)O)[C@H](OS(=O)(=O)O)[C@H]4OS(=O)(=O)O)[C@H](OS(=O)(=O)O)[C@H](OS(=O)(=O)O)[C@H]3OS(=O)(=O)O)[C@@H](OS(=O)(=O)O)[C@H](OS(=O)(=O)O)[C@H]2OS(=O)(=O)O)[C@@H](OS(=O)(=O)O)[C@@H]1OS(=O)(=O)O)C12CC3CC(CC(C3)C1)C2 [6-O--(1-Adamantylcarbonyl)-β-D-fructofuranosyl-O--α-D-galact] [6-O-(1-Adamantylcarbonyl)-β-D-fructofuranosyl-O-α-D-galactopyranosyl(1→6)-O-α-D-galactopyranosyl(1→6)-α-D-glucopyranoside, tridecakis(H-sulfate), tridecasalt with trimethylamine]						+10 Wells			
O=C(OC[C@H]1O[C@@](COS(=O)(=O)O)(O[C@H]2O[C@H](CO[C@H]3O[C@H](CO[C@H]4O[C@H](COS(=O)(=O)O)[C@H](OS(=O)(=O)O)[C@H](OS(=O)(=O)O)[C@H]4OS(=O)(=O)O)[C@H](OS(=O)(=O)O)[C@H](OS(=O)(=O)O)[C@H]3OS(=O)(=O)O)[C@@H](OS(=O)(=O)O)[C@H](OS(=O)(=O)O)[C@H]2OS(=O)(=O)O)[C@@H](OS(=O)(=O)O)[C@@H]1OS(=O)(=O)O)C12CC3CC(CC(C3)C1)C2 [6-O--(1-Adamantylcarbonyl)-β-D-fructofuranosyl-O--α-D-galact] [6-O-(1-Adamantylcarbonyl)-β-D-fructofuranosyl-O-α-D-galactopyranosyl(1→6)-O-α-D-galactopyranosyl(1→6)-α-D-glucopyranoside, tridecakis(H-sulfate), tridecasodium salt]	+2 Wells						78	71	59
